The target in series [1] is T1, Galactokinase (Homo sapiens, UniProt P51570). As to the kind of experiment: Inhibition of recombinant human GALK1 using galactose as substrate incubated for 1 hrs in the presence of ATP by Kinase-Glo reagent based luminescence assay. For orientation: Kinase-Glo measures the ATP left after a reaction by luminescence.
Series [2] can be described thus: Permeability of the compound at pH 7.4 measured after 30 mins by PAMPA based LC/MS analysis. The series is classed as ADME. The conditions noted are these: for Papp at 0.5 h: PAMPA, pH 7.4, read-out: permeability. On the technique in general: PAMPA measures passive passage across an artificial lipid membrane.
Series [3] can be described thus: Metabolic stability in mouse liver microsome assessed as half life. The series is classed as ADME. The conditions noted are these: microsomes. (Liver microsomes are a subcellular fraction often used to study metabolism.)
The nature of series [4]: Metabolic stability in human liver microsomes assessed as half life. Format: ADME, Microsome.
A short description of series [5]: physchem. The conditions noted are these: phosphate buffer, pH 7.4.
Description: Kinetic solubility of the compound in phosphate buffer at pH 7.4 at 150 uM incubated for 6 hrs by shake-flask method
The nature of series [6]: Tmax in CD-1 mouse at 30 mg/kg, po measured upto 24 hrs by LC-MS/MS analysis. The series is classed as ADME, organism-based. The conditions noted are these: in vivo.
The nature of series [7]: AUClast in CD-1 mouse at 30 mg/kg, po measured upto 24 hrs by LC-MS/MS analysis. The series is classed as ADME, organism-based. The arrangement: dose 30 mg/kg, time < 24 hrs, route po. The conditions noted are these: in vivo.
Series [8] in a line: Cmax in CD-1 mouse at 50 mg/kg, ip measured upto 24 hrs by LC-MS/MS analysis. The arrangement: dose 50 mg/kg, time < 24 hrs, route ip. The conditions noted are these: in vivo. The series is classed as ADME, organism-based.
A short description of series [9]: AUCinfinity in CD-1 mouse at 3 mg/kg, iv measured upto 24 hrs by LC-MS/MS analysis. The series is classed as ADME, organism-based. The arrangement: time < 24 hrs, dose 3 mg/kg, route iv. The following applies: in vivo.
A short description of series [10]: Half life in CD-1 mouse at 50 mg/kg, ip measured upto 24 hrs by LC-MS/MS analysis. The series is classed as ADME, organism-based. The following applies: in vivo.
A short description of series [11]: Dose normalized AUClast in CD-1 mouse at 50 mg/kg, ip measured upto 24 hrs by LC-MS/MS analysis. The series is classed as ADME, organism-based. The conditions noted are these: in vivo.
The nature of series [12]: Half life in CD-1 mouse at 3 mg/kg, iv measured upto 24 hrs by LC-MS/MS analysis. The following applies: in vivo. Format: ADME, organism-based.
Series [13] addresses T1, Galactokinase. As to the kind of experiment: Inhibition of human GALK1 in GALT-deficient human fibroblast assessed as reduction in gal-1P level incubated for 2 to 4 hrs by cellular Gal-1P accumulation assay. The series is classed as cell-based. The following applies: dose 0.5-3 µM, time 2-4 hrs, DDE = dose-dependent effect.
Series [14] is described as follows: AUClast in CD-1 mouse at 3 mg/kg, iv measured upto 24 hrs by LC-MS/MS analysis. The arrangement: time < 24 hrs, dose 3 mg/kg, route iv. The series is classed as ADME, organism-based. The conditions noted are these: in vivo.
Series [15] in a line: C0 in CD-1 mouse at 3 mg/kg, iv measured upto 24 hrs by LC-MS/MS analysis. Format: ADME, organism-based. The following applies: in vivo.
Series [16] can be described thus: AUCinfinity in CD-1 mouse at 50 mg/kg, ip measured upto 24 hrs by LC-MS/MS analysis. The series is classed as ADME, organism-based. The arrangement: time < 24 hrs, dose 50 mg/kg, route ip. The following applies: in vivo.
A short description of series [17]: Oral bioavailability in CD-1 mouse at 30 mg/kg measured upto 24 hrs by LC-MS/MS analysis. Format: ADME, organism-based. The conditions noted are these: in vivo.
The nature of series [18]: Plasma protein binding in CD-1 mouse. Format: ADME, cell-free.
The nature of series [19]: AUClast in CD-1 mouse at 50 mg/kg, ip measured upto 24 hrs by LC-MS/MS analysis. The conditions noted are these: in vivo. The arrangement: time < 24 hrs, dose 50 mg/kg, route ip. Format: ADME, organism-based.
A short description of series [20]: Half life in CD-1 mouse at 30 mg/kg, po measured upto 24 hrs by LC-MS/MS analysis. The series is classed as ADME, organism-based. The following applies: in vivo.
A short description of series [21]: Dose normalized AUClast in CD-1 mouse at 3 mg/kg, iv measured upto 24 hrs by LC-MS/MS analysis. Format: ADME, organism-based. The conditions noted are these: in vivo.
Series [22] is described as follows: Cmax in CD-1 mouse at 30 mg/kg, po measured upto 24 hrs by LC-MS/MS analysis. The series is classed as ADME, organism-based. The following applies: in vivo. The arrangement: time < 24 hrs, dose 30 mg/kg, route po.
A short description of series [23]: Observed volume of distribution at steady state in CD-1 mouse at 3 mg/kg, iv measured upto 24 hrs by LC-MS/MS analysis. Format: ADME, organism-based. The following applies: in vivo, read-out: Vdss.
A short description of series [24]: Drug concentration in CD-1 mouse plasma at 3 mg/kg, iv measured after 2 hrs by LC-MS/MS analysis. The series is classed as ADME, organism-based. The following applies: in vivo, BLD = below limit of detection.
Series [25] in a line: Dose normalized AUClast in CD-1 mouse at 30 mg/kg, po measured upto 24 hrs by LC-MS/MS analysis. The series is classed as ADME, organism-based. The conditions noted are these: in vivo.
Series [26] can be described thus: Drug concentration in CD-1 mouse plasma at 50 mg/kg, ip measured after 7 hrs by LC-MS/MS analysis. Format: ADME, organism-based.
A short description of series [27]: Tmax in CD-1 mouse at 50 mg/kg, ip measured upto 24 hrs by LC-MS/MS analysis. Format: ADME, organism-based. The following applies: in vivo.
A short description of series [28]: AUCinfinity in CD-1 mouse at 30 mg/kg, po measured upto 24 hrs by LC-MS/MS analysis. The series is classed as ADME, organism-based. The arrangement: time < 24 hrs, dose 30 mg/kg, route po. The conditions noted are these: in vivo.
Series [29] deals with T1, Galactokinase. As to the kind of experiment: Inhibition of human GALK1 in GALT-deficient human fibroblast assessed as reduction in gal-1P level at 3 uM incubated for 2 to 4 hrs by cellular Gal-1P accumulation assay relative to control. Format: cell-based. The following applies: time 2-4 hrs.

≈ marks a conversion by molar mass, not a printed value. Some results are limits rather than exact numbers.

T1 sequence (P51570 whole entry): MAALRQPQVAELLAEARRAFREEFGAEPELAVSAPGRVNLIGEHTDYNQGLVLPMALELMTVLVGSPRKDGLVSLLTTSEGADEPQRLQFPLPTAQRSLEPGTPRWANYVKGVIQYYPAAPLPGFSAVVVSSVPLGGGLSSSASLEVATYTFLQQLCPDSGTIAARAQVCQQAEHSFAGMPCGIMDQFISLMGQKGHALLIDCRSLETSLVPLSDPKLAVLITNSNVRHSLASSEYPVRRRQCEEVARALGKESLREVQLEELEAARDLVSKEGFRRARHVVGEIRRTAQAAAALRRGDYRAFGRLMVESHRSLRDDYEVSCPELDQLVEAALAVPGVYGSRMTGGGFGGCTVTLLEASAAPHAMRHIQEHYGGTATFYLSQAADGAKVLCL

On to `CC1=C(C(=O)Nc2ccccc2)C(c2ccccc2Cl)N=C(Nc2nc3ccccc3o2)N1` (stereo unspecified), for which the IC50 in [1] (read-out: pIC50 (converted)) is 10.5 µM.
For the compound `CC1=C(C(=O)Nc2nncs2)C(c2ccccc2Cl)N=C(Nc2nc3ccccc3o2)N1` (stereo unspecified), the IC50 in series [1] (read-out: IC50) is 3.43 µM; in series [1] (read-out: pIC50 (converted)), 3.72 µM.
On to `COc1ccc2oc(NC3=NC(c4ccccc4Cl)C(C(=O)Nc4cc(C(=O)O)ccn4)=C(C)N3)nc2c1` (stereo unspecified), for which the IC50 in series [1] (read-out: pIC50 (converted)) is 6.61 µM.
Consider `CC1=C(C(=O)NCc2cccc(CO)c2)C(c2ccccc2Cl)N=C(Nc2nc3ccccc3o2)N1` (stereo unspecified), for which the IC50 in series [1] (read-out: pIC50 (converted)) is 4.68 µM.
The same measure, in the same setting: to `CC1=C(C(=O)Nc2nnc(C)s2)C(c2ccccc2Cl)N=C(Nc2nc3ccccc3o2)N1` (stereo unspecified) belongs 5.25 µM.
On to `CCn1cc(CNC(=O)C2=C(C)NC(Nc3nc4ccc(F)c(N)c4o3)=N[C@@H]2c2ccc(C)cc2Cl)cn1`, for which the IC50 in series [1] (read-out: pIC50 (converted)) is 1.48 µM. Further, the Papp at 0.5 h in series [2] worked out at 407 ×10⁻⁶ cm/s. The t1/2 in series [3] was found to be 12 min; in [4], 10 min. In addition, the kinetic solubility (as a rule, solubility judged after dilution from a stock solution rather than from solid) at 6 h, 150 µM in [5] was 2.1 µg/mL (≈ 3.91 µM).
Regarding `CC1=C(C(=O)Nc2cc(C(=O)O)ccn2)C(c2ccccc2Cl)N=C(Nc2nc3cccc(C)c3o2)N1` (stereo unspecified), in series [1] (read-out: pIC50 (converted)), the IC50 was 0.933 µM.
In the case of `COC(=O)c1ccc(NC(=O)C2=C(C)NC(Nc3nc4ccccc4o3)=NC2c2ccccc2Cl)cc1` (stereo unspecified), the IC50 in [1] (read-out: IC50) was 4.32 µM; in [1] (read-out: pIC50 (converted)), 4.47 µM.
Take `COc1ccc(C2N=C(Nc3nc4ccc(F)cc4o3)NC(C)=C2C(=O)Nc2cc(C(=O)O)ccn2)c(Cl)c1` (stereo unspecified): the IC50 in series [1] (read-out: pIC50 (converted)) was 0.447 µM.
In the case of `CC1=C(C(=O)NCc2cnn(C)c2)C(c2ccc(C)cc2Cl)N=C(Nc2nc3ccc(F)c(N)c3o2)N1` (racemic), the Tmax (commonly the time at which the peak concentration occurs) in [6] came out at 40.2 min; in [27], 79.98 min. Further, the AUClast in [7] amounted to 15.96 µM·h; in series [14], 4.66 µM·h; in [19] it was 80.36 µM·h. Besides, the values for the Cmax in series [8] and in series [22] were 21.9 µM and 7.02 µM, respectively. In addition, the results for the AUC in series [9], in series [16] and in series [28] were 4.81 µM·h, 80.36 µM·h and 16.06 µM·h, respectively. The t1/2 in [10] came out at 102 min; in series [12], 24.6 min; in series [3], 14 min; in [20], 136 min. Also, in series [1] (read-out: IC50), the IC50 came out at 0.048 µM. Further, the AUClast/dose is 841 ng·h/mL/(mg/kg) in series [11], 812 ng·h/mL/(mg/kg) in series [21] and 278 ng·h/mL/(mg/kg) in [25]. In addition, the Papp at 0.5 h in series [2] is 485 ×10⁻⁶ cm/s. The inhibition (usually the relative decrease from the control value, in per cent) is “Dde” in [13] and 50% in series [29]. Further, in series [15], the C0 at 24 h came out at 8.25 µM. The compound further returned a F in series [17] of 33%. In addition, in series [18], the PPB was 98.74%. This compound showed a solubility (kinetic) at 6 h, 150 µM in series [5] of 1.3 µg/mL (≈ 2.49 µM). Besides, the Vd in series [23] was 0.652 L/kg. In addition, the Cp entry in series [24] is listed as “Bld”. Moreover, in [26], the concentration at 7 h is greater than 1 µM.
Turning to `CC1=C(C(=O)Nc2ccccc2Cl)C(c2ccccc2Cl)N=C(Nc2nc3ccccc3o2)N1` (stereo unspecified), the IC50 in [1] (read-out: pIC50 (converted)) was 4.17 µM.
For `CC1=C(C(=O)NCc2cnn(C)c2)C(c2ccc(C)cc2Cl)N=C(Nc2nc3cccc(N)c3o2)N1` (racemic), the IC50 in series [1] (read-out: pIC50 (converted)) is 0.209 µM. For the same compound, the permeability in series [2] (pampa, pH 7.4, 0.5 h) is listed as 315 10^-6 cm/s. Moreover, the t1/2 in series [3] is on record as 11 min; in series [4] it was 32 min. In addition, the solubility (kinetic) at 6 h, 150 µM in series [5] worked out at 8.3 µg/mL (≈ 16.4 µM).
For the compound `CC1=C(C(=O)NCc2cnn(C)c2)[C@@H](c2ccc(C)cc2Cl)N=C(Nc2nc3cccc(N)c3o2)N1`, the IC50 in [1] (read-out: pIC50 (converted)) was 11.7 µM.
As for `CC1=C(C(=O)NCc2cnn(C)c2)C(c2ccccc2Cl)N=C(Nc2nc3ccccc3o2)N1` (stereo unspecified), the IC50 in series [1] (read-out: pIC50 (converted)) was 1.41 µM.
In the case of `CC1=C(C(=O)Nc2cc(C(=O)O)ccn2)C(c2ccccc2Cl)N=C(Nc2nc3cccc(N)c3o2)N1` (stereo unspecified), the IC50 in series [1] (read-out: pIC50 (converted)) is 0.234 µM.
Regarding `CC1=C(C(=O)NCc2cn(C)cn2)C(c2ccccc2Cl)N=C(Nc2nc3ccccc3o2)N1` (stereo unspecified), the IC50 in series [1] (read-out: pIC50 (converted)) is 1.05 µM.
With `CC1=C(C(=O)Nc2cccc(CO)c2)C(c2ccccc2Cl)N=C(Nc2nc3ccccc3o2)N1` (stereo unspecified), the IC50 in [1] (read-out: pIC50 (converted)) is 4.17 µM.
`CC1=C(C(=O)Nc2cc(C(=O)O)ccn2)C(c2ccc(F)cc2Cl)N=C(Nc2nc3ccc(F)cc3o2)N1` (stereo unspecified): the IC50 in [1] (read-out: pIC50 (converted)) was 0.891 µM.
Same read-out and setting: to `CC1=C(C(=O)NCc2cccc(C(=O)O)c2)C(c2ccccc2Cl)N=C(Nc2nc3ccccc3o2)N1` (stereo unspecified) belongs 9.33 µM.

Source of the values: ChEMBL document CHEMBL5096199, “Structure-Based Optimization of Small Molecule Human Galactokinase Inhibitors” (J Med Chem, 2021).
